Reference: patent US20230023092A1, “TREATMENT OF DEPRESSION AND OTHER VARIOUS DISORDERS WITH PSILOCYBIN” (COMPASS […], priority 2019, published 2023)

Experiments:
healthy subjects [1] = experiment: Social Value Orientation (SVO); type: in vivo, human
Text: In some embodiments, the Social Value Orientation (SVO) test is utilized to evaluate the safety and/or efficacy of psilocybin. The SVO Slider Measure has 6 primary items with 9 secondary (and optional) items. All of the items have the same general form. Each item is a resource allocation choice over a well-defined continuum of joint payoffs.
(§1) The Pictorial Empathy Test (PET), Reading the Mind in the Eyes Test (RMET), Scale of Social Responsibility (SSR), Social Value Orientation (SVO), and Toronto Empathy Questionnaire (TEQ) were performed. Table 20 summarizes the results of the mixed model for repeated measures (MMRM) analysis for each of the aforementioned social cognition panel scales measured on Day 7 and Day 84 after study drug administration.

subjects = details: prevalence unknown but likely; cited from earlier work
healthy subjects [2] = experiment: Positive and Negative Affect Schedule (PANAS); type: in vivo, human; details: for PANAS-Negative, change from baseline, Mean / PANAS-Positive, change from baseline, Mean: Post-Treatment Day 0, LS mean; for PANAS-Negative, change from baseline, Mean difference / PANAS-Positive, change from baseline, Mean difference: Post-Treatment Day 0
Text: In some embodiments, the Positive and Negative Affect Schedule (PANAS) is used to evaluate the safety and/or efficacy of psilocybin. The PANAS measures the acute emotional drug effects and comprises 2 mood scales that measure positive and negative affect. Positive affect refers to the propensity to experience positive emotions and interact with others positively. Negative affect involves experiencing the world in a more negative way. Subjects respond to 10 questions associated with negative affect and 10 questions associated with positive affect. The questions are scaled using a 5-point scale that ranges from “slightly or not at all (1)” to “extremely (5)”. A total higher score on the positive affect questions indicates more of a positive effect while a lower score on the negative affect questions indicates less of a negative affect. In some embodiments, after treating according to the methods of the disclosure, a subject experiences a decrease in negative affect score of the PANAS, between about 5% and about 100%, for example about 5%, about 10%, about 15%, about 20%, about 25%, about 30%, about 35%, about 40%, about 45%, about 50%, about 55%, about 60%, about 65%, about 70%, about 75%, about 80%, about 85%, about 90%, about 95%, or about 100%, compared to prior to treatment. In some embodiments, after treating according to the methods of the disclosure, a subject experiences an increase in positive affect score of the PANAS, between about 5% and about 100%, for example about 5%, about 10%, about 15%, about 20%, about 25%, about 30%, about 35%, about 40%, about 45%, about 50%, about 55%, about 60%, about 65%, about 70%, about 75%, about 80%, about 85%, about 90%, about 95%, or about 100%, about 110%, about 120%, about 130%, about 140%, about 150%, about 160%, about 170%, about 180%, about 190%, about 200%, about 210%, about 220%, about 230%, about 240%, about 250%, about 260%, about 270%, about 280%, about 290%, or about 300%, or more, compared to prior to treatment.
The Positive and Negative Affects Schedule (PANAS) score was also evaluated to measure the effect of psilocybin.

healthy subjects [3] = experiment: Pictorial Empathy Test (PET); type: in vivo, human
Protocol: In some embodiments, the Pictorial Empathy Test (PET) is utilized to evaluate the effect of psilocybin on affective empathy.
as §1

[4] = Day 7, psilocybin 10 mg - placebo
[5] = Day 7, psilocybin 25 mg - 10 mg
[6] = Day 7, psilocybin 25 mg - placebo
[7] = Day 84, psilocybin 10 mg - placebo
[8] = Day 84, psilocybin 25 mg - 10 mg
[9] = Day 84, psilocybin 25 mg - placebo

CN(C)CCc1c[nH]c2cccc(OP(=O)(O)O)c12 [Psilocybin, psilocybin]
SVO angle change from baseline (LS mean) (healthy subjects [1]; Day 7, psilocybin 10 mg): 1.8 | SVO type change from baseline (LS mean) (healthy subjects [1]; Day 7, psilocybin 10 mg): 0.1 | SVO angle change from baseline, LS mean difference (healthy subjects [1]; [4]): 3.4 | SVO type change from baseline, LS mean difference (healthy subjects [1]; [4]): 0.1 | SVO angle change from baseline (LS mean) (healthy subjects [1]; Day 7, psilocybin 25 mg): 0.5 | SVO type change from baseline (LS mean) (healthy subjects [1]; Day 7, psilocybin 25 mg): 0.1 | SVO angle change from baseline, LS mean difference (healthy subjects [1]; [5]): −1.3 | SVO type change from baseline, LS mean difference (healthy subjects [1]; [5]): −0.0 | SVO angle change from baseline, LS mean difference (healthy subjects [1]; [6]): 2.1 | SVO type change from baseline, LS mean difference (healthy subjects [1]; [6]): 0.1 | SVO angle change from baseline (LS mean) (healthy subjects [1]; Day 84, psilocybin 10 mg): 0.1 | SVO type change from baseline (LS mean) (healthy subjects [1]; Day 84, psilocybin 10 mg): 0.1 | SVO angle change from baseline, LS mean difference (healthy subjects [1]; [7]): 3.4 | SVO type change from baseline, LS mean difference (healthy subjects [1]; [7]): 0.1 | SVO angle change from baseline (LS mean) (healthy subjects [1]; Day 84, psilocybin 25 mg): −0.9 | SVO type change from baseline (LS mean) (healthy subjects [1]; Day 84, psilocybin 25 mg): 0.0 | SVO angle change from baseline, LS mean difference (healthy subjects [1]; [8]): −1.0 | SVO type change from baseline, LS mean difference (healthy subjects [1]; [8]): −0.0 | SVO angle change from baseline, LS mean difference (healthy subjects [1]; [9]): 2.4 | SVO type change from baseline, LS mean difference (healthy subjects [1]; [9]): 0.1 | Frequency of rare side effects: HPPD/flashbacks; worsening of mental state after drug experience (subjects): unknown but likely <2%) | PANAS negative affect, mean increase from baseline (healthy subjects [2]; 25 mg, Day 0 after treatment): 1.3 | PANAS-Negative, change from baseline, Mean (healthy subjects [2]; Psilocybin 10 mg): −0.6 | PANAS-Positive, change from baseline, Mean (healthy subjects [2]; Psilocybin 10 mg): 0.7 | PANAS-Negative, change from baseline, Mean difference (healthy subjects [2]; Psilocybin 10 mg-Placebo): −0.5 | PANAS-Positive, change from baseline, Mean difference (healthy subjects [2]; Psilocybin 10 mg-Placebo): 5.7 | PANAS-Negative, change from baseline, Mean (healthy subjects [2]; Psilocybin 25 mg): 1.3 | PANAS-Positive, change from baseline, Mean (healthy subjects [2]; Psilocybin 25 mg): −0.4 | PANAS-Negative, change from baseline, Mean difference (healthy subjects [2]; Psilocybin 25 mg-10 mg): 1.9 | PANAS-Positive, change from baseline, Mean difference (healthy subjects [2]; Psilocybin 25 mg-10 mg): −1.0 | PANAS-Negative, change from baseline, Mean difference (healthy subjects [2]; Psilocybin 25 mg-Placebo): 1.4 | PANAS-Positive, change from baseline, Mean difference (healthy subjects [2]; Psilocybin 25 mg-Placebo): 4.6 | PET change from baseline (LS mean) (healthy subjects [3]; Day 7, psilocybin 10 mg): −0.3 | PET change from baseline, LS mean difference (healthy subjects [3]; [4]): −0.1 | PET change from baseline (LS mean) (healthy subjects [3]; Day 7, psilocybin 25 mg): 0.0 | PET change from baseline, LS mean difference (healthy subjects [3]; [5]): 0.3 | PET change from baseline, LS mean difference (healthy subjects [3]; [6]): 0.2 | PET change from baseline (LS mean) (healthy subjects [3]; Day 84, psilocybin 10 mg): −0.3 | PET change from baseline, LS mean difference (healthy subjects [3]; [7]): −0.1 | PET change from baseline (LS mean) (healthy subjects [3]; Day 84, psilocybin 25 mg): −0.1 | PET change from baseline, LS mean difference (healthy subjects [3]; [8]): 0.3 | PET change from baseline, LS mean difference (healthy subjects [3]; [9]): 0.1
